Measurements taken from patent publication US20130267522A1, “METHODS FOR TREATING CANCER” (priority 2012, published 2013).

Tested on: naturally-occurring InvTCC
Assay: Study of folate-vinblastine conjugate in dogs with naturally-occurring InvTCC (tumor response)
Format: in vivo
Conditions: IV once weekly, dose escalation from 0.2 mg/kg
Method: A study was performed in dogs with naturally-occurring InvTCC to investigate antitumor activity and toxicity of folate targeted vinblastine treatment. The study of folate targeted vinblastine was performed in privately owned dogs with naturally-occurring InvTCC at the Purdue University Veterinary Teaching Hospital (PUVTH), Inclusion criteria for dogs in the study included: measurable, histologically-confirmed InvTCC; positive folate uptake detected by scintigraphy or FR expression observed in the tumor via IHC; expected survival of at least 6 weeks; and written dog owner consent. The study was open to dogs that had failed other therapies or who were not eligible for standard therapy.
The folate-vinblastine conjugate EC0905 was used. Briefly, EC0905 is a water-soluble folate conjugate of desacetylvinblastine monohydrazide (DA VLBH), which is constructed with the DA VLBH drug moiety attached to a hydrophilic folate-peptide compound via an endosome-cleavable disulfide bond (FIG. 1). A dose escalation study was performed. EC0905 was administered IV once weekly (starting dose 0.2 mg/kg), Dose escalation was performed within and between dogs with at least 3 dogs in each dose group, and at least 6 dogs treated at the maximum tolerated dose (MTD) (increased by 0.02 mg/kg in each dose group). Toxicity was assessed by CBCs, serum chemistry profiles, urinalyses, physical exams, and owner observations. Toxicity was classified by Veterinary Cooperative Oncology Group (VCOG) criteria.
The EC0905 dose was reduced by 10% if grade 2 toxicity was noted, and by 20% if grade 3 or higher toxicity occurred. Treatment was delayed by one week if the neutrophil count was<3000/mm^3 or platelet count <100,000/mm^3 the day treatment was due. The treatment protocol was scheduled to continue until 8 weeks beyond complete remission, or until cancer progression, or until unacceptable toxicity was noted.
Physical exam, medical history, and CBC were obtained weekly. Monthly evaluation included CBC, serum biochemical profile, urinalysis, urinary tract ultrasound, and mapping of the bladder masses by ultrasound. Urinary tumors were measured by a single ultrasound operator, and estimated tumor volume was recorded. Prior to treatment and at 8-week intervals, complete tumor staging (thoracic radiography, full abdominal ultrasonography) was performed, and tumor stage determined by the World Health Organization criteria for canine urinary bladder tumors. Tumor response was defined as: complete remission (no cancer detected), partial remission (PR, ≧50% decrease in tumor volume and no new tumor lesions), stable disease (SD, <50% change in tumor volume and no new tumor lesions), and progressive disease (PD, ≧50% increase in tumor volume or the development of new tumor lesions).

Pte-γGlu-(Glu(1-amino-1-deoxy-D-glucitol)-Glu)3-Glu(1-amino-1-deoxy-D-glucitol)-Cys(S-ethyl-3-(4-desacetylvinblastinyl)hydrazinecarboxylate) [EC0905]
Partial remission (PR), percent of cases: 50%
Partial remission (PR, ≧50% decrease in tumor volume and no new tumor lesions), number of dogs: 5 dogs
Stable disease (SD), percent of cases: 50%
Stable disease (SD, <50% change in tumor volume and no new tumor lesions), number of dogs: 5 dogs
